The values that follow come from article doi:10.1101/2024.08.19.608619, “Discovery of potent SARS-CoV-2 nsp3 macrodomain inhibitors uncovers lack of translation to cellular antiviral response” (bioRxiv, 2024).

Common to all, as to test: biochemical
Holding throughout (parameters): In vitro kinase panel profiling, per cent remaining kinase activity at 10 uM

One test addresses T1, TAK1(h) (Homo sapiens, UniProt O43318).
T1 construct: gene MAP3K7
T1 sequence (O43318 1-606): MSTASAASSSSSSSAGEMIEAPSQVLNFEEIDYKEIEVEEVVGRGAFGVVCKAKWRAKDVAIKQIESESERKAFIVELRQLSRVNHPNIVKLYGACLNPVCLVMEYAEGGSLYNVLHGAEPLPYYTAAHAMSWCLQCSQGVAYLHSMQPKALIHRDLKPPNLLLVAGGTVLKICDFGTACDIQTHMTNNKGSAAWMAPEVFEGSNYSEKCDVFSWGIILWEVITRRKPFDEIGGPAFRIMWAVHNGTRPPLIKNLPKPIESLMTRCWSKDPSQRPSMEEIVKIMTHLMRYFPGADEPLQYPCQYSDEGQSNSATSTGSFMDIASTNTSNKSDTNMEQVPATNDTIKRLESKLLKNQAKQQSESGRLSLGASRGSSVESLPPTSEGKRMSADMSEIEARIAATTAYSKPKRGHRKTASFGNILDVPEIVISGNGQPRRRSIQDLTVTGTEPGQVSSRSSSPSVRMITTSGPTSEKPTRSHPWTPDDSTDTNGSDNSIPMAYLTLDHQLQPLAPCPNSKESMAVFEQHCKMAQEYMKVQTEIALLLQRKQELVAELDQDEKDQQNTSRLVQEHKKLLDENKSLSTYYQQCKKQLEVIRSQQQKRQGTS
The note with it: atp_concentration=45, read-out: % of control remaining. From the text:
(§1) We derisk potential for off-target activity by profiling the compound in a CEREP panel, a standard secondary pharmacology assessment, as well as a kinase panel to derisk a potential hinge-binding motif in our leads, and a PARP panel to derisk activity against human […]. Reassuringly, the compounds are selective, with the only off-targets being moderate human CHRM2 and KOR receptors activity associated with ASAP-0011198.

A further test has as its target CDK1/cyclinB(h) (Homo sapiens, UniProt P06493). The settings on record: atp_concentration=45, read-out: % of control remaining.
Excerpt: as §1

For the next test, the target named is T2, Pim-1(h) (Homo sapiens, UniProt P11309).
T2 construct: gene PIM1
T2 sequence (P11309 whole entry): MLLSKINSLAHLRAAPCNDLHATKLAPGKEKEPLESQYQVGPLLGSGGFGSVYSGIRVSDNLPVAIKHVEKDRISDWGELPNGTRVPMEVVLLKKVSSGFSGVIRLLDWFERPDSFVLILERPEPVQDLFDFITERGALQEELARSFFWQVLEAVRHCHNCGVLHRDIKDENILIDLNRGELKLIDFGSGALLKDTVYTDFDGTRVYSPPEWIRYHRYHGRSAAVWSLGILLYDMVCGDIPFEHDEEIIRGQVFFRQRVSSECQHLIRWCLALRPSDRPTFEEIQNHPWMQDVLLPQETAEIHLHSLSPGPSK
The note with it: atp_concentration=90, read-out: % of control remaining.
Excerpt: as §1

The next test addresses T3, CK1γ1(h) (Homo sapiens, UniProt Q9HCP0).
T3 construct: gene CSNK1G1
The settings on record: atp_concentration=15, read-out: % of control remaining.
Excerpt: as §1

The next test concerns the target T4, IKKα(h) (Homo sapiens, UniProt O15111).
T4 construct: gene CHUK
T4 sequence (O15111 1-745): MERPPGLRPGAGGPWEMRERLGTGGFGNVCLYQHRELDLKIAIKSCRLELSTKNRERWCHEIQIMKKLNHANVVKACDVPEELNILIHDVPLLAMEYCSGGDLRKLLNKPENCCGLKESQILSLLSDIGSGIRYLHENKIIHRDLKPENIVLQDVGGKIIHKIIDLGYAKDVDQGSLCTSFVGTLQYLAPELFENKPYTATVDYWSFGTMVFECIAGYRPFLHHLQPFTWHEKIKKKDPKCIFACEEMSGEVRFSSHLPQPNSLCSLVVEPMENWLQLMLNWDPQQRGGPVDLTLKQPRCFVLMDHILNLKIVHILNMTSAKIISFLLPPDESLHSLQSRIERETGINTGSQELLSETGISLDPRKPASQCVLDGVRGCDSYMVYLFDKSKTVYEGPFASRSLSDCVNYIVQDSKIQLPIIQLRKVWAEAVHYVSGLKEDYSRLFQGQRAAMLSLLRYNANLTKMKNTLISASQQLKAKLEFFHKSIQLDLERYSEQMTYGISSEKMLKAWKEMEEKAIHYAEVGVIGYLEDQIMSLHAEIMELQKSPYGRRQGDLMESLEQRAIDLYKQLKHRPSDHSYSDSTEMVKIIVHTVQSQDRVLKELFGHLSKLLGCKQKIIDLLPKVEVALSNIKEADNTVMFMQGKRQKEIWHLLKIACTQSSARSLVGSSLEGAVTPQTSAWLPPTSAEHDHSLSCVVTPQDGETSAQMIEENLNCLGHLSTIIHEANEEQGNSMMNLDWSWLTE
The note with it: atp_concentration=10, read-out: % of control remaining.
Excerpt: as §1

A further test has as its target T5, Aurora-A(h) (Homo sapiens, UniProt O14965).
T5 construct: gene AURKA
T5 sequence (O14965 1-403): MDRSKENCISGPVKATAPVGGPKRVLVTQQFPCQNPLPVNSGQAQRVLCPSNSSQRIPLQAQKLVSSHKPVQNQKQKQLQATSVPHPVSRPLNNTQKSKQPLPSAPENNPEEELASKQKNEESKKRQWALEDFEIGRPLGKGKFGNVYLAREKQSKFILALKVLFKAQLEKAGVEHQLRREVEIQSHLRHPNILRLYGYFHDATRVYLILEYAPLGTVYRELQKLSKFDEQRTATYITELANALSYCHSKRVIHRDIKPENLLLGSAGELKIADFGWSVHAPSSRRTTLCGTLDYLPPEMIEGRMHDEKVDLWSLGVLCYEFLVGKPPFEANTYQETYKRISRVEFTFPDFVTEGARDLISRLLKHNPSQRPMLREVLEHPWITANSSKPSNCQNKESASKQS
The note with it: atp_concentration=15, read-out: % of control remaining.
Excerpt: as §1

The target of the next test is T6, MLK1(h) (Homo sapiens, UniProt P80192).
T6 construct: gene MAP3K9
T6 sequence (P80192 whole entry): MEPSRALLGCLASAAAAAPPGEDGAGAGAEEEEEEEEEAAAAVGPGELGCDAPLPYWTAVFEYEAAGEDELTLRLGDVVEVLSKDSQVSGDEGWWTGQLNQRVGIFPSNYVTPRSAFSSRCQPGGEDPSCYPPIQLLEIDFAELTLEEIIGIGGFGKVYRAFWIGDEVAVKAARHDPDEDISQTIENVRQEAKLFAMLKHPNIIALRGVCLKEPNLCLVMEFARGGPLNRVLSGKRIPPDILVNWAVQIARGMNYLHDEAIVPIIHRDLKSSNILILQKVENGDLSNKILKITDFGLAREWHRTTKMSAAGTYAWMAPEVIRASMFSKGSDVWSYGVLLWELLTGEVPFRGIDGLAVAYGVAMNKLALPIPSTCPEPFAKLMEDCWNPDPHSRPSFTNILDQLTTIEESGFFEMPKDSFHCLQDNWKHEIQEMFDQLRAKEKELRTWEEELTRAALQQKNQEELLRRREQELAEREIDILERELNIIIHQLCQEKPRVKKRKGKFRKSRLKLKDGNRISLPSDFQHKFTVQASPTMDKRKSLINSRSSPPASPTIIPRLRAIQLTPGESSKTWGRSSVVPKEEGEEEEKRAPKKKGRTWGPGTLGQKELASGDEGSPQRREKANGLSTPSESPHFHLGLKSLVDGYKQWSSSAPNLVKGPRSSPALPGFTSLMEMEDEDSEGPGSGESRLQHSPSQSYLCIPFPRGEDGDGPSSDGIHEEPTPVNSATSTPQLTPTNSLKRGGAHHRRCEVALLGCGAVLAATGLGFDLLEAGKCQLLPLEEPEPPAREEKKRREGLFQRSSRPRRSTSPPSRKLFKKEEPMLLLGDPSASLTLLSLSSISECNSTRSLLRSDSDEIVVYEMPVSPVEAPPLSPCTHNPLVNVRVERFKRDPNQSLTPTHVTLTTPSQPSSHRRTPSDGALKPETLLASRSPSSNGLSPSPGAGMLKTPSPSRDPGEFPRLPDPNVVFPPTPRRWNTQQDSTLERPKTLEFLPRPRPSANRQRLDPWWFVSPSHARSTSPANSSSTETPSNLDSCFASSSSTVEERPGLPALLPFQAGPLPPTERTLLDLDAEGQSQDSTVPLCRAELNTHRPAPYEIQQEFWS
The settings on record: atp_concentration=45, read-out: % of control remaining.
Excerpt: as §1

SMILES strings stand for the structures. Like-named read-outs stand apart in the source and are kept apart here.

T3 sequence (Q9HCP0 whole entry): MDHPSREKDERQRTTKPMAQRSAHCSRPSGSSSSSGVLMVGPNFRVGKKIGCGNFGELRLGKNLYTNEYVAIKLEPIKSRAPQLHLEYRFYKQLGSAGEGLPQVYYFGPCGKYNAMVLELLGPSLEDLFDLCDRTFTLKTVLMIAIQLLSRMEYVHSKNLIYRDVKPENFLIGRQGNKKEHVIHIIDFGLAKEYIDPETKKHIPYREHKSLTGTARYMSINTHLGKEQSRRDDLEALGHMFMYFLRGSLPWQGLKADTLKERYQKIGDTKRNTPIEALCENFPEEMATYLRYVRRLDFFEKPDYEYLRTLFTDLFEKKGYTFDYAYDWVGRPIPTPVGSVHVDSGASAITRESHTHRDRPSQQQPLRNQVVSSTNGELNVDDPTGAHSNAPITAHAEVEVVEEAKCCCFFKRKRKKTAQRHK
Sequence of CDK1/cyclinB(h) (P06493 whole entry): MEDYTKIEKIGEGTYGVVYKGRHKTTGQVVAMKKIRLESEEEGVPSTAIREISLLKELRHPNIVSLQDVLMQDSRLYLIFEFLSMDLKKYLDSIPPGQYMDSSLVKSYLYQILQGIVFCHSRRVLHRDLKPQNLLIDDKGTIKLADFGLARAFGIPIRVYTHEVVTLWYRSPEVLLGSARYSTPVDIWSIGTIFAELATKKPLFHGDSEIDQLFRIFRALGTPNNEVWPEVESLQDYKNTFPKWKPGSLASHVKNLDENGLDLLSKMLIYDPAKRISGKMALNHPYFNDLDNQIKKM
Sequence of CDK1/cyclinB(h) (P14635 whole entry partner): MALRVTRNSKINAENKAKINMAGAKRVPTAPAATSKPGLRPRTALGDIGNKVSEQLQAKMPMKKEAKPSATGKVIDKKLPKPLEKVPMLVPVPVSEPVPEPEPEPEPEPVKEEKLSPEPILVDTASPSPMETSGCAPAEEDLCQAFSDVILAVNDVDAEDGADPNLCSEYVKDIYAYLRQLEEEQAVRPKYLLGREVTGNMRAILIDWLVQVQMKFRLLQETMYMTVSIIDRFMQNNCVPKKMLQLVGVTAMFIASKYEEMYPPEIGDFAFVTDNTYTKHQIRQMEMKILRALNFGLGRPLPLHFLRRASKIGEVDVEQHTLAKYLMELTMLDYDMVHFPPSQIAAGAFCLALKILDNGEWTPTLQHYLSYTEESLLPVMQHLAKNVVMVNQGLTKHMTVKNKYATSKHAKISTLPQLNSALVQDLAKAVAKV

With `C[C@H](C(=O)O)[C@@H](NC(=O)c1ncnc2[nH]ccc12)c1ccc(Br)cc1` [ASAP-0014722], the remaining activity at 10 µM on TAK1(h) (batch_name=ASAP-0014722-002) came to 95%; on CDK1/cyclinB(h) (batch_name=ASAP-0014722-002), 92%; at Pim-1(h) (batch_name=ASAP-0014722-002) it was 95%; on CK1γ1(h) (batch_name=ASAP-0014722-002), 92%; on IKKα(h) (batch_name=ASAP-0014722-002) it was 99%; on Aurora-A(h) (batch_name=ASAP-0014722-002), 72%. Further, at MLK1(h) (batch_name=ASAP-0014722-002), the remaining activity at 10 µM turned out to be 86%.

Consider `CC(C)C(Nc1ncnc2[nH]ccc12)c1ccc2c(c1)S(=O)(=O)CCC2` (stereo not shown) [ASAP-0008327], for which the remaining activity at 10 µM at TAK1(h) (batch_name=ASAP-0008327-001) was 83%; at CDK1/cyclinB(h) (batch_name=ASAP-0008327-001), 129%; on Pim-1(h) (batch_name=ASAP-0008327-001) it was 80%; at CK1γ1(h) (batch_name=ASAP-0008327-001), 102%; on IKKα(h) (batch_name=ASAP-0008327-001), 91%; at Aurora-A(h) (batch_name=ASAP-0008327-001) it was 57%. In addition, the remaining activity at 10 µM on MLK1(h) (batch_name=ASAP-0008327-001) amounted to 81%.

As to `CC(C)[C@H](Nc1ncnc2[nH]c(-c3cnn(C)c3C#N)cc12)c1ccc2c(n1)OCCO2` [ASAP-0010715], the remaining activity at 10 µM came out at 94% on TAK1(h) (batch_name=ASAP-0010715-002); 89% on CDK1/cyclinB(h) (batch_name=ASAP-0010715-002); 98% at Pim-1(h) (batch_name=ASAP-0010715-002); 100% on CK1γ1(h) (batch_name=ASAP-0010715-002); 120% on IKKα(h) (batch_name=ASAP-0010715-002); 53% at Aurora-A(h) (batch_name=ASAP-0010715-002). Further, at MLK1(h) (batch_name=ASAP-0010715-002), the remaining activity at 10 µM was 73%.

Regarding `COc1ccc([C@H](Cc2nnn[nH]2)NC(=O)c2ncnc3[nH]ccc23)cc1` [ASAP-0015381], the remaining activity at 10 µM at TAK1(h) (batch_name=ASAP-0015381-001) was 99%; on CDK1/cyclinB(h) (batch_name=ASAP-0015381-001) it was 98%; on Pim-1(h) (batch_name=ASAP-0015381-001) it was 99%; on CK1γ1(h) (batch_name=ASAP-0015381-001), 94%; on IKKα(h) (batch_name=ASAP-0015381-001), 98%; at Aurora-A(h) (batch_name=ASAP-0015381-001), 84%. In addition, on MLK1(h) (batch_name=ASAP-0015381-001), the remaining activity at 10 µM was 87%.
